Laboratory results published in PMC4103815, “P-Glycoprotein Mediated Efflux Limits the Transport of the Novel Anti-Parkinson's Disease Candidate Drug FLZ across the Physiological and PD Pathological In Vitro BBB Models” (PLoS ONE, 2014).

Columns and labels:
[1] = tested on: normal rCMECs; assay: Cell viability by MTT, normal rCMECs; type: cell-based, rat; details: 24 h; FLZ 1 to 50 µM, zosuquidar 5 µM, FTC 10 µM
Method: (§1) To investigate the effects of FLZ on the growth of normal and PD rCMECs monolayers, a cell proliferation assay was performed. […] Therefore, in all following experiments, we used FLZ (1, 5 and 10 µM), zosuquidar (5 µM) and FTC (10 µM) as standard treatment.
(§2) Supplementary file pone.0102442.s001.tif: Figure S1 The cytotoxicity of FLZ (A) and inhibitors (B) in rat cerebral microvessel endothelial cells. rCMECs were exposed to the indicated concentration of FLZ (A) and transport inhibitors zosuquidar and FTC for 24 h. Each point represents the mean ± SD of three determinations. Each experiment was performed in three times. (TIF) Click here for additional data file.

[2] = tested on: PD rCMECs; assay: Cell viability by MTT, PD rCMECs; type: cell-based, rat; details: 24 h; FLZ 1 to 50 µM, zosuquidar 5 µM, FTC 10 µM
Method: as §1, §2

[3] = tested on: physiological in vitro BBB model; assay: Sodium fluorescein permeability, physiological co-culture BBB model; type: in vitro ADME, rat; details: co-culture model under normal conditions
Method: (§3) The flux of sodium fluorescein (NaF) across the BBB models was determined as previously described. Prior to transport studies, culture media from the top and bottom compartments were replaced with HBSS. 100 µg/ml Na-F (MW: 376 Da) was added to the upper inserts of the Transwell system. At 30, 60, 90 and 120 min, 50 µl samples were taken from the acceptor compartment and immediately replaced with fresh buffer. The concentrations of the fluorescein in samples from the upper to lower compartments were determined by fluorescence multiwell plate reader (excitation wavelength: 485 nm; emission wavelength: 535 nm). Based on the rate of influx of sodium fluorescein into the bottom compartment, permeability coefficients were calculated.

[4] = tested on: PD pathological in vitro BBB model; assay: Sodium fluorescein permeability, PD pathological co-culture BBB model; type: in vitro ADME, rat; details: co-culture model under Parkinson's conditions
Method: as §3

Row | SMILES | viability of normal rCMECs (MTT) [1] | viability of PD rCMECs (MTT) [2] | paracellular Papp of NaF [3] | paracellular Papp of NaF [4]
1 | COc1ccc2c3c([nH]c2c1)[C@H](C=C(C)C)N1C(=O)[C@@H]2CCCN2C(=O)[C@@H]1C3 [FTC, Fumitremorgin C] | did not effect | did not effect |  | 
2 | O=C([O-])c1ccccc1-c1c2ccc(=O)cc-2oc2cc([O-])ccc12.[Na+].[Na+] [NaF, sodium fluorescein] |  |  | 1.92±0.19 10^−6 cm/s | 2.18±0.26 10^−6 cm/s
3 | O[C@@H](COc1cccc2ncccc12)CN1CCN([C@@H]2c3ccccc3[C@@H]3[C@H](c4ccccc42)C3(F)F)CC1 [zosuquidar] | did not effect | did not effect |  | 
